Measurements: article PMC7486443, “Generation of Phenothiazine with Potent Anti-TLK1 Activity for Prostate Cancer Therapy” (iScience, 2020)

What was measured:
Test in all cases: biochemical
Parameters in all cases: DiscoverX KINOMEscan scanMAX competition binding panel, single concentration, percent of control; remaining binding: dose or concentration left out as unconfirmed
Details in all cases: KINOMEscan binding, percent of control; read-out: Table S4_SCANMAX REPORT - related to Fig. 1 / Percent Control
BMPR2 = BMPR2 (Homo sapiens, UniProt Q13873)
CAMK1 = CAMK1 (Homo sapiens, UniProt Q14012)
CAMK1B = molecular target: T1, CAMK1B (Homo sapiens, UniProt Q6P2M8)
T1 construct: gene PNCK

CAMK1D = CAMK1D (Homo sapiens, UniProt Q8IU85)
Chain of CAMK1D (Q8IU85 whole entry): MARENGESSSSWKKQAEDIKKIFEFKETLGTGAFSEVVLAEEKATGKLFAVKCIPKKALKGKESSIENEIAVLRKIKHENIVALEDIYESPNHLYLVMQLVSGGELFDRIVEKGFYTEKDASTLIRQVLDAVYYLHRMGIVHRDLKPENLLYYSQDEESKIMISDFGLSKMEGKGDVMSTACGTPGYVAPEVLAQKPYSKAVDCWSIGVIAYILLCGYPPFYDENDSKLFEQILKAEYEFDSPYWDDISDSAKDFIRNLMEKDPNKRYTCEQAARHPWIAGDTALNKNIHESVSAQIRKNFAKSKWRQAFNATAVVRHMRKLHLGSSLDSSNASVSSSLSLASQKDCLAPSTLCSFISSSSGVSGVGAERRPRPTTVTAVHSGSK

CLK3 = CLK3 (Homo sapiens, UniProt P49761)
CTK = molecular target: T2, CTK (Homo sapiens, UniProt P42679)
T2 construct: gene MATK

GRK3 = GRK3 (Homo sapiens, UniProt P35626)
Chain of GRK3 (P35626 whole entry): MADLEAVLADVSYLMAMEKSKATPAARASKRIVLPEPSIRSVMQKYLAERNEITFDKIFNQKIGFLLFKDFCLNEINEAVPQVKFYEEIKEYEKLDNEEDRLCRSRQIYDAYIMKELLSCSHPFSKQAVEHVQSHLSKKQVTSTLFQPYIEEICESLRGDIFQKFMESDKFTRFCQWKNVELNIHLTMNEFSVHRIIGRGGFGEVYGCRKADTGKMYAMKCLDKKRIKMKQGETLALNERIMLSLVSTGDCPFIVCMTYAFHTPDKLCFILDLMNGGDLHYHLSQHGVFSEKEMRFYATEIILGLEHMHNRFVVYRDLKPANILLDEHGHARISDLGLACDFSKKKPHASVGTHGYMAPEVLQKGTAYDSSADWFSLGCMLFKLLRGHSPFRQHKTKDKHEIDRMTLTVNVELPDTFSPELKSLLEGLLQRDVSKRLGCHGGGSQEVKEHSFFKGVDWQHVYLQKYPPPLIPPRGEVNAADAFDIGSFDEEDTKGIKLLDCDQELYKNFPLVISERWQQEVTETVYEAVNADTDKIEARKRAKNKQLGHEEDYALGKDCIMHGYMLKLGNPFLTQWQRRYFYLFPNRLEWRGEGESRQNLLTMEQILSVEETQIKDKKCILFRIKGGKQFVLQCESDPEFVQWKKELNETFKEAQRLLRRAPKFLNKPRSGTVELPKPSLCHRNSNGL

HUNK = HUNK (Homo sapiens, UniProt P57058)
[1] = molecular target: T3, JAK1(JH1domain-catalytic) (Homo sapiens, UniProt P23458)
T3 construct: JH1domain-catalytic

MELK = MELK (Homo sapiens, UniProt Q14680)
NEK10 = NEK10 (Homo sapiens, UniProt Q6ZWH5)
Chain of NEK10 (Q6ZWH5 whole entry): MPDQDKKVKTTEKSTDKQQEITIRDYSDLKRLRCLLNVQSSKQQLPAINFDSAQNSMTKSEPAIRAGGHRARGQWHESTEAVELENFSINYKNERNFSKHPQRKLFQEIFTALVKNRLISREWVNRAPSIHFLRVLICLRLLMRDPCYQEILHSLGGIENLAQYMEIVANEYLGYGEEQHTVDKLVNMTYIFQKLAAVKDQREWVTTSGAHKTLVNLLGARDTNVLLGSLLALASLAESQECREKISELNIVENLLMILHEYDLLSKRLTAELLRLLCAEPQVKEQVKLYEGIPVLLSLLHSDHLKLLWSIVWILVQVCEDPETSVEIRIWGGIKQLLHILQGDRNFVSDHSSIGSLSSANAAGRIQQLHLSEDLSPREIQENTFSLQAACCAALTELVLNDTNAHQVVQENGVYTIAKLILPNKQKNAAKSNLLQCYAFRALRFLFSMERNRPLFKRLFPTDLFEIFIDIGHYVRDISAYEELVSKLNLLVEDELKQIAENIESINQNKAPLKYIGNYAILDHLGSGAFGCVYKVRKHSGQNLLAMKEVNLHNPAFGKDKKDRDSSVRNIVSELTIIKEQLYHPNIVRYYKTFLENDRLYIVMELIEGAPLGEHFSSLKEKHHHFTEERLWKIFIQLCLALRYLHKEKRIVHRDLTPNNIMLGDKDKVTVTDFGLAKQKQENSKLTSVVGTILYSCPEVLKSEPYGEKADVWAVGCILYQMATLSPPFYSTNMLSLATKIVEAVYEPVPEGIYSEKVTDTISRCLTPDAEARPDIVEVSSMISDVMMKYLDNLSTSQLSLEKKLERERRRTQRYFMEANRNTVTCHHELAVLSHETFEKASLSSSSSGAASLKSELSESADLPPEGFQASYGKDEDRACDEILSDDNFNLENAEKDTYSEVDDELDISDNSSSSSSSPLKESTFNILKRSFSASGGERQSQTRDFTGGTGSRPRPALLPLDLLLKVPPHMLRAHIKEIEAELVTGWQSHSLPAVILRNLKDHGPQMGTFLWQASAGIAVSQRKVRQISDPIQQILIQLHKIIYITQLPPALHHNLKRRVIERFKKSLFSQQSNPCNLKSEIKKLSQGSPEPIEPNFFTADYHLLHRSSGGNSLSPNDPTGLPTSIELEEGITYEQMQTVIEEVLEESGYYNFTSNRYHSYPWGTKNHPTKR

PHKG2 = PHKG2 (Homo sapiens, UniProt P15735)
PIK3C2G = PIK3C2G (Homo sapiens, UniProt O75747)
PIK3CA(E545A) = PIK3CA(E545A) (Homo sapiens, UniProt P42336, E545A)
ROS1 = ROS1 (Homo sapiens, UniProt P08922)
Chain of ROS1 (P08922 whole entry): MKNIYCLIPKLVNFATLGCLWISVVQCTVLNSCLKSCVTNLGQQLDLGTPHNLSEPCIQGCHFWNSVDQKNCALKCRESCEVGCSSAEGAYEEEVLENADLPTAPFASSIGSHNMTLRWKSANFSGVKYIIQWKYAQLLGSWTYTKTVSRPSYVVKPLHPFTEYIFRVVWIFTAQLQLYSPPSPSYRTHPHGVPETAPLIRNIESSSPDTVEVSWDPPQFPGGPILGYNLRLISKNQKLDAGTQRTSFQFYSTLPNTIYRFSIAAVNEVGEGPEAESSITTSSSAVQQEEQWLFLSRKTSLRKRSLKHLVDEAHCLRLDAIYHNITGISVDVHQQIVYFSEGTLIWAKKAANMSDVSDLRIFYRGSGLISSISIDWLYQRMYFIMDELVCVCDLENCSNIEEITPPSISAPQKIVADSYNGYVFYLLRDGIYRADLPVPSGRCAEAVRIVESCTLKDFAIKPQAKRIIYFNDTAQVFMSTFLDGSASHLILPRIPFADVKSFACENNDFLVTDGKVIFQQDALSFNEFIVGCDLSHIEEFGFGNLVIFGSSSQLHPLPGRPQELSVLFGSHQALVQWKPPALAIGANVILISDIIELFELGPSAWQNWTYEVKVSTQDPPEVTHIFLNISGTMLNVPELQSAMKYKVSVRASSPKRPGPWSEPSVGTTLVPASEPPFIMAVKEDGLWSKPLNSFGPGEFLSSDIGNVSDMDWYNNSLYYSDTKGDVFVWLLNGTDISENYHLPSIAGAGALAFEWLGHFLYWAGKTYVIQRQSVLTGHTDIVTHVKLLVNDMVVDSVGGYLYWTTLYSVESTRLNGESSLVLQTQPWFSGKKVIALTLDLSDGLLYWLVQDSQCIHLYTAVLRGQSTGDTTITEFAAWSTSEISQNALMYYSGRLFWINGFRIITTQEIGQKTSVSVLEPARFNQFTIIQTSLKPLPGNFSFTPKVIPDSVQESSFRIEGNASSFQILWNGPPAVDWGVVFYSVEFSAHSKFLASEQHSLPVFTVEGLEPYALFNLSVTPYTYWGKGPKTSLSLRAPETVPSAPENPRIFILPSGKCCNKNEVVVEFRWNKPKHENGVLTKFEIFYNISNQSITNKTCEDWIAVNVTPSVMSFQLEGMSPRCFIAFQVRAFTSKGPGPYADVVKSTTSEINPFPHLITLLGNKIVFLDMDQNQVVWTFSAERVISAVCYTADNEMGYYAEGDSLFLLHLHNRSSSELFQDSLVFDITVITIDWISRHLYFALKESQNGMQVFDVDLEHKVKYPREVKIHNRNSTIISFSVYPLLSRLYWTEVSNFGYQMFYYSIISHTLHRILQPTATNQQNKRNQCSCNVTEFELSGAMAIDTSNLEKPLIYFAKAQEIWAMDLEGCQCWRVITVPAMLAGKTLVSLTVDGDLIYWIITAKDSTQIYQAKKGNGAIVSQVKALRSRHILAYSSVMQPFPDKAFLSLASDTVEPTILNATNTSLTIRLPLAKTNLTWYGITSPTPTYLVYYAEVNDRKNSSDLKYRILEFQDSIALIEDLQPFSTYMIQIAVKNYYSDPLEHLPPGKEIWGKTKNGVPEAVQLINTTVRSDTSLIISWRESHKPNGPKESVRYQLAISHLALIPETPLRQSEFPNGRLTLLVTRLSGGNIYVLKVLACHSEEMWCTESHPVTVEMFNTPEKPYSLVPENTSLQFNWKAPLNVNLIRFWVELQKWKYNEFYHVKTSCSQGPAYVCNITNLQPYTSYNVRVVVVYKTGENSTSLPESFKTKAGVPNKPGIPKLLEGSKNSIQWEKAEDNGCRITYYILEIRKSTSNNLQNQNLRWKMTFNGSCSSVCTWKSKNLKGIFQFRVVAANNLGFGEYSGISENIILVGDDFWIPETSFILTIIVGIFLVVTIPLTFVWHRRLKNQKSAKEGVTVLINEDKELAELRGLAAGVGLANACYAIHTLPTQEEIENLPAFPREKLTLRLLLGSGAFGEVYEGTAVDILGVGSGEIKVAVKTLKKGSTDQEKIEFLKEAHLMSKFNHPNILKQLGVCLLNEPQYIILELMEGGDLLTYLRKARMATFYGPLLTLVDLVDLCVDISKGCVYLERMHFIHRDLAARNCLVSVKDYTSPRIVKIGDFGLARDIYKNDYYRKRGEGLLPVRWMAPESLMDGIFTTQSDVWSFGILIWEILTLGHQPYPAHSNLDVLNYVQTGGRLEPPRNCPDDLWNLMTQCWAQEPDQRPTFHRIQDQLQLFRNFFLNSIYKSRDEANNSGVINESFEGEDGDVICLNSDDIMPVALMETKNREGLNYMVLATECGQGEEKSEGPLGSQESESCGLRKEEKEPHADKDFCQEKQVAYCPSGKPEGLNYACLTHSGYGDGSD

TGFBR1 = TGFBR1 (Homo sapiens, UniProt P36897)
ULK3 = ULK3 (Homo sapiens, UniProt Q6PHR2)
Chain of ULK3 (Q6PHR2 whole entry): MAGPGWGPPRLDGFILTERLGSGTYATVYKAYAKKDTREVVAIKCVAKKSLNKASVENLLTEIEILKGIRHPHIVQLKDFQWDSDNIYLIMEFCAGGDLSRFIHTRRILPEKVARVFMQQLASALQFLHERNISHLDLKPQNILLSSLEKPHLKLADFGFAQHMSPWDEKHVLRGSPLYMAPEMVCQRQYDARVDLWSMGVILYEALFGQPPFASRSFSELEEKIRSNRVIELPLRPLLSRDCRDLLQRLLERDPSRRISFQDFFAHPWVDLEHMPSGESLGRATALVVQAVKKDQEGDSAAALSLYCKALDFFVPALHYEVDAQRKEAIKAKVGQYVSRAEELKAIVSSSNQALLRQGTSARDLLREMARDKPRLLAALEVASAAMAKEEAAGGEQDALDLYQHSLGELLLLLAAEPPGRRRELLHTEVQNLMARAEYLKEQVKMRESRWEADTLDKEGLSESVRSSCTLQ

YANK3 = molecular target: T4, YANK3 (Homo sapiens, UniProt Q86UX6)
T4 construct: gene STK32C

YES = molecular target: T5, YES (Homo sapiens, UniProt P07947)
T5 construct: gene YES1

Which remaining binding (BMPR2) does the source give for `c1ccc2c(c1)Sc1ccccc1N2CCN1CCOCC1` [J54] here?
Its remaining binding is 100%.

What about the remaining binding (CAMK1) of the same molecule?
Its remaining binding is 97%.

And the remaining binding (CAMK1B)?
Its remaining binding is 94%.

And the remaining binding (CAMK1D)?
The remaining binding was 85%.

What about the remaining binding (CLK3) of the same molecule?
The remaining binding was 92%.

And the remaining binding (CTK)?
The remaining binding was 95%.

And the remaining binding (GRK3)?
Its remaining binding is 93%.

And the remaining binding (HUNK)?
Its remaining binding is 58%.

And the remaining binding [1]?
Its remaining binding is 100%.

And the remaining binding (MELK)?
Its remaining binding is 84%.

And the remaining binding (NEK10)?
The remaining binding was 97%.

And the remaining binding (PHKG2)?
Its remaining binding is 94%.

And the remaining binding (PIK3C2G)?
The remaining binding was 74%.

What about the remaining binding (PIK3CA(E545A)) of the same molecule?
The remaining binding was 97%.

And the remaining binding (ROS1)?
The remaining binding was 100%.

And the remaining binding (TGFBR1)?
Its remaining binding is 100%.

What about the remaining binding (ULK3) of the same molecule?
The remaining binding was 79%.

What about the remaining binding (YANK3) of the same molecule?
Its remaining binding is 100%.

What about the remaining binding (YES) of the same molecule?
The remaining binding was 100%.
